Test results published in patent US9540337B2, “Gamma-glutamyl transpeptidase inhibitors and methods of use” (The Board of Regents of the University of Oklahoma, priority 2012, dated 2017).
Values joined by “and” are separate entries in the source; they are usually repeats but may differ in a detail not shown here. Identical values can stand only once. Like-named read-outs stand apart in the source and are kept apart here.

Assays:
Human GGT1 (hGGT) [1] = molecular target: T1, Human GGT1 (hGGT) (Homo sapiens, UniProt P19440); experiment: L-GpNA Transpeptidation Assay with GlyGly as acceptor; type: biochemical; design: lacking the transmembrane domain; made in house; host or cells: Pichia pastoris; settings: for fold change in L-GpNA Kii (transpeptidation) relative to Compound 16: weaker than Compound 16
Protocol: Transpeptidation Reaction: The same assay buffer was used for both the hydrolysis reaction and the transpeptidation reaction. The transpeptidation reaction included 40 mM glycylglycine (glygly, Sigma, St. Louis, Mo.) as the acceptor. […] The concentration of L-GpNA was 3 mM for experiments in which the concentration of glygly was varied. To initiate the transpeptidation reaction, 4 mU GGT were added.
1. […] 3 and 4. […] 5 (25).
L-GpNA Transpeptidation Assay: The assay has been described previously. […] The concentration of L-GpNA was 3 mM for experiments in which the concentration of GlyGly was varied. To initiate the transpeptidation reaction, 4 mU GGT were added.

Human GGT1 (hGGT) [2] = molecular target: T1, Human GGT1 (hGGT); experiment: D-GpNA Hydrolysis Assay (release of pNA, 405 nm, pH 7.4); settings: for Vo (maximum velocity at zero activator) / V∞ (maximum rate at infinite activator): Hydrolysis D-GpNA, Table 3; for maximal fold induction: human; for fold less effective than OU749 in inhibiting hydrolysis of D-GpNA: relative to OU749
Protocol: (§1) Enzyme Isolation: Human GGT1 (P19440), lacking the transmembrane domain, was expressed in Pichia pastoris and isolated as previously described (14). […] One unit of GGT activity was defined as the amount of enzyme that released 1 μmol of paranitroaniline/min at 37° C. at pH 7.4 in the transpeptidation reaction.
The reaction was initiated with the addition of 19 mU GGT. The reaction was incubated at 37° C. and monitored continuously at 405 nm by a Bio-Rad model 680 microplate reader with Microplate Manager 5.2 software (Bio-Rad, Hercules, Calif.).
Data Analysis: Samples in each experiment were run in triplicate. Each inhibitor was evaluated in two or more independent experiments. Double reciprocal plots were generated to assess data quality and determine the correct rate equation for data fitting. Data were fitted using the proper rate equation and the Marquardt-Levenberg algorithm supplied with the Enzfitter program (BIOSOFT, Cambridge, UK). Kinetic parameters with standard errors were estimated using a simple weighting method.
Data adhering to Michaelis-Menten Kinetics were fitted to eq. 1. Data for initial rate patterns with D-, L-GpNA varied at different fixed levels of glygly were fitted to eq. […] Data for competitive and uncompetitive inhibition were fitted to eqs. 3 and 4. Data for the dependence of Vmax and Vmax/KD-GpNA on the concentration of activator were fitted using eq. 5 (25).
In eqs 1-6, Vmax are the initial and maximum rates, respectively, Ka and Kb are Michaelis constants for substrates A and B, respectively, and Kis and Kii are slope and intercept inhibition constants. In eq. 5, a is the value of Vmax or Vmax/KD-GpNA at zero activator/inhibitor, KID is the activation or inhibition constant, and KIN is a constant that causes the parameter to go to a constant value at infinite concentrations of X, the activator/inhibitor. The product a(KID/KIN) is the value of Vmax or Vmax/KD-GpNA at infinite activator/inhibitor (25). Data for noncompetitive inhibition were fitted to eq. 6. Data for the dependence of Vmax and Vmax/KD-GpNA on the concentration of activator were fitted using […].
as §1, with “hGGT” for “Human GGT1”, “described.” for “described (14).”, “reaction with L-GpNA.” for “reaction.”
D-GpNA Hydrolysis Assay: The assay was carried out as previously described. […] The reaction was initiated with the addition of 19 mU GGT as determined by the L-GpNA transpeptidation assay. The reaction was incubated at 37° C. and monitored continuously at 405 nm.

hGGT = molecular target: T2, hGGT (Homo sapiens, UniProt P19440); experiment: L-Glutamate Release Assay (Hydrolysis of GSH); type: biochemical; settings: for Ki: GSH hydrolysis, read-out: GSH Kii
T2 construct: lacking the transmembrane domain; made in house; host or cells: Pichia pastoris
Protocol: L-Glutamate Release Assay (Hydrolysis of GSH): This assay measures the production of glutamate from the hydrolysis of GSH by GGT enzyme and has been described in detail previously. The concentration of the substrate, GSH, was varied from 5 μM to 20 μM. The concentration of the inhibitors, OU749 and its analogs, were varied from 15.6 μM to 250 μM. The reaction was initiated with the addition of 10 mU hGGT. […] All compounds were also evaluated as inhibitors of glutamate dehydrogenase, the enzyme in the second half of the L-glutamate release assay. None of the compounds in this study inhibited glutamate dehydrogenase.

[3] = Table 3, read-out: Transpeptidation GlyGly Kis
[4] = Table 3, read-out: Transpeptidation L-GpNA Kii
[5] = pH 7.4, read-out: Fold Activation
[6] = read-out: activation of the Vmax for hydrolysis (V∞/Vo)
[7] = GlyGly varied, 3 mM L-GpNA, Table 2, read-out: Transpeptidation GlyGly Kis
[8] = L-GpNA varied, 40 mM GlyGly, Table 2, read-out: Transpeptidation L-GpNA Kii
[9] = Table 5, read-out: GlyGly with L-GpNA Kis
[10] = Table 5, read-out: L-GpNA with GlyGly Kii

T1 sequence (P19440 381-569 limits assumed): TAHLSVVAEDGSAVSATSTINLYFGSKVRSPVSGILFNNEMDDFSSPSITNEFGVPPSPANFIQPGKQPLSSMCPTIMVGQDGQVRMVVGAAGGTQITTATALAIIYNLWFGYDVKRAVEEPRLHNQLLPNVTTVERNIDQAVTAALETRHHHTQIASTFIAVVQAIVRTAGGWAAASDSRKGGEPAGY
T1 sequence (P19440 27-380 limits assumed): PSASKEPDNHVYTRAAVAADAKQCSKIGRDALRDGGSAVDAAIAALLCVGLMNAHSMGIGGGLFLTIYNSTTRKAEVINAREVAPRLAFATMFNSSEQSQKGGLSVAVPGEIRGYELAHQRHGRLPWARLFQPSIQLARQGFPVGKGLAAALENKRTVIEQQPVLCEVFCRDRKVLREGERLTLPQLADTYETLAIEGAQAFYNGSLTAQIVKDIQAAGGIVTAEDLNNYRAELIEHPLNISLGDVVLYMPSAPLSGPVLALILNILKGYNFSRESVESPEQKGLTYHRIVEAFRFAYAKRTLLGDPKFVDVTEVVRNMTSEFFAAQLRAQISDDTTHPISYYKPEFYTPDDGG
T2 sequence (P19440 381-569 limits assumed): as the sequence (P19440 381-569 limits assumed) above
T2 sequence (P19440 27-380 limits assumed): as the sequence (P19440 27-380 limits assumed) above

With `Cc1cccc(Cc2nnc(NS(=O)(=O)c3ccc([N+](=O)[O-])cc3)s2)c1` [Compound 18] the Ki (Human GGT1 (hGGT) [1]; [3]) was 34.3 ± 0.9 µM, the Ki (Human GGT1 (hGGT) [1]; [4]) was 121 ± 8.8 µM and the “fold change in L-GpNA Kii (transpeptidation) relative to Compound 16” value (Human GGT1 (hGGT) [1]) was 2 fold. The “Vo (maximum velocity at zero activator)” value (Human GGT1 (hGGT) [2]) was 1.15 ± 0.01 mM/min/nM, the “V∞ (maximum rate at infinite activator)” value (Human GGT1 (hGGT) [2]) was 5.08 ± 0.20 mM/min/nM and the maximal fold induction (Human GGT1 (hGGT) [2]; [5]) was 4.42 ± 0.64. The maximal fold induction (Human GGT1 (hGGT) [2]; [6]) was 3 to 6.
In the case of `COc1ccc(Cc2nnc(NS(=O)(=O)c3ccc(Cl)cc3Cl)s2)cc1` [Compound 4], the Ki (Human GGT1 (hGGT) [1]; [7]) is reported as 3.7 ± 1 µM, the Ki (Human GGT1 (hGGT) [1]; [8]) is reported as 15.7 ± 0.7 µM and the Ki (Human GGT1 (hGGT) [2]) is reported as 75.6 ± 7.2 µM. It also gave a Ki (hGGT; Table 6) of 950 ± 242 µM.
Molecule `Nc1ccc(Cc2nnc(NS(=O)(=O)c3ccc(N)cc3)s2)cc1` [Compound 23] has a Ki (Human GGT1 (hGGT) [1]; [9]) of 15 ± 1 µM, a Ki (Human GGT1 (hGGT) [1]; [10]) of 181 ± 20 µM and a Ki (Human GGT1 (hGGT) [2]) of 29 ± 3 µM. It also gave a Ki (hGGT; Table 5) of 102 ± 16 µM.
In the case of `Nc1ccc(S(=O)(=O)Nc2nnc(Cc3ccc(Cl)c(Cl)c3)s2)cc1` [Compound 29], the “decrease of Kis as competitive inhibitor of GlyGly relative to OU749” value (Human GGT1 (hGGT) [1]) is reported as “up to 11 fold”, the Ki (Human GGT1 (hGGT) [1]; [9]) is reported as 5 ± 1 µM and the Ki (Human GGT1 (hGGT) [1]; [10]) is reported as 34 ± 4 µM. For the same molecule, the Ki (Human GGT1 (hGGT) [2]) was 32 ± 1 µM and the Ki (hGGT; Table 5) was 905 ± 53 µM.
With `COc1ccc(Cc2nnc(NS(=O)(=O)c3ccc(NO)cc3)s2)cc1` [Compound 5] the Ki (Human GGT1 (hGGT) [1]; [7]) was 25.7 ± 1.3 µM, the Ki (Human GGT1 (hGGT) [1]; [8]) was 64.4 ± 5.1 µM and the Ki (Human GGT1 (hGGT) [2]) was 149 ± 13.6 µM. For the same molecule, the “fold less effective than OU749 in inhibiting hydrolysis of D-GpNA” value (Human GGT1 (hGGT) [2]) was 2-5 fold.
For `CN(C)c1ccc(Cc2nnc(NS(=O)(=O)c3ccc(N)cc3)s2)cc1` [Compound 27], the Ki (Human GGT1 (hGGT) [1]; [9]) was 24 ± 4 µM, the Ki (Human GGT1 (hGGT) [1]; [10]) was 275 ± 12 µM and the Ki (Human GGT1 (hGGT) [2]) was 180 ± 5 µM. The Ki (hGGT; Table 5) was 363 ± 35 µM.
With `NS(=O)(=O)c1ccccc1.[Na]` [SBS, Sodium benzenesulfonamide, reference compound] the Ki (Human GGT1 (hGGT) [1]; SBS, read-out: Kii, transpeptidation, vs L-GpNA) was 28800 ± 1600 µM, the Ki (Human GGT1 (hGGT) [1]; SBS, read-out: Kis, transpeptidation, vs GlyGly) was 2280 ± 70 µM and the “fold less effective than OU749 in inhibiting hydrolysis of D-GpNA” value (Human GGT1 (hGGT) [2]) was “more than 2.000 fold”.
Molecule `COc1ccc(Cc2nnc(NS(=O)(=O)c3ccc4ccccc4c3)s2)cc1` [Compound 30] has a Ki (Human GGT1 (hGGT) [1]; Table 6, read-out: GlyGly with L-GpNA Kis) of 143 ± 20 µM, a Ki (Human GGT1 (hGGT) [1]; Table 6, read-out: L-GpNA with GlyGly Kii) of 364 ± 43 µM and a Ki (Human GGT1 (hGGT) [2]) of 415 ± 50 µM. For the same molecule, the Ki (hGGT; Table 6) was 206 ± 37 µM and the “fold less potent than Compound 6 in inhibiting catabolism of GSH” value (hGGT; relative to Compound 6) was 2.1 fold.
For `COc1ccc(Cc2nnc(NS(=O)(=O)c3ccc(Cl)cc3)s2)cc1` [Compound 10], the Ki (Human GGT1 (hGGT) [1]; [7]) was 13.4 ± 0.8 µM, the Ki (Human GGT1 (hGGT) [1]; [8]) was 32.5 ± 0.9 µM and the Ki (Human GGT1 (hGGT) [2]; read-out: Hydrolysis D-GpNA Kii, D-GpNA substrate, Table 2) was 5530 ± 1460 µM. For the same molecule, the Ki (hGGT; Table 6) was over 250 µM.
In the case of `COc1ccc(Cc2nnc(NS(=O)(=O)c3ccc([N+](=O)[O-])cc3)s2)cc1` [Compound 11], the Ki (Human GGT1 (hGGT) [1]; [7]) is reported as 96 µM and 95.7 µM, the Ki (Human GGT1 (hGGT) [1]; [8]) is reported as 93 µM and 92.8 µM and the “difference in affinity for D-γ-glutamyl and L-γ-glutamyl enzyme intermediates” value (Human GGT1 (hGGT) [1]; human) is reported as 2.5 fold. For the same molecule, the “fold change in GlyGly Kis (transpeptidation) relative to Compound 16” value (Human GGT1 (hGGT) [1]; increase relative to Compound 16) was “more than 2 fold”, the “fold change in L-GpNA Kii (transpeptidation) relative to Compound 16” value (Human GGT1 (hGGT) [1]) was “less than 2 fold” and the “Vo (maximum velocity at zero activator)” value (Human GGT1 (hGGT) [2]) was 1.59 ± 0.14 mM/min/nM. The “V∞ (maximum rate at infinite activator)” value (Human GGT1 (hGGT) [2]) was 8.63 ± 1.21 mM/min/nM and the maximal fold induction (Human GGT1 (hGGT) [2]; [5]) was 5.43 ± 2.04.
`O=[N+]([O-])c1ccc(S(=O)(=O)Nc2nnc(Cc3ccc(Cl)cc3)s2)cc1` [Compound 16] showed a Ki (Human GGT1 (hGGT) [1]; [3]) of 44.4 ± 3.4 µM, a Ki (Human GGT1 (hGGT) [1]; [4]) of 61.9 µM and a Ki (Human GGT1 (hGGT) [1]; Table 7, read-out: L-GpNA with GlyGly Kii) of 62 ± 2 µM. For the same molecule, the “Vo (maximum velocity at zero activator)” value (Human GGT1 (hGGT) [2]) was 1.71 ± 0.09 mM/min/nM, the “V∞ (maximum rate at infinite activator)” value (Human GGT1 (hGGT) [2]) was 7.70 ± 0.46 mM/min/nM and the maximal fold induction (Human GGT1 (hGGT) [2]; [5]) was 4.5 ± 0.63. The maximal fold induction (Human GGT1 (hGGT) [2]; [6]) was 3 to 6.
`COc1ccc(Cc2nnc(NS(=O)(=O)c3ccccc3)s2)cc1` [Compound 1] showed a Ki (Human GGT1 (hGGT) [1]; [7]) of 54.1 ± 3.9 µM and a Ki (hGGT; Table 4) of 376 ± 50 µM.
